Data reported in patent US20250163150A1, “COMBINATION THERAPIES COMPRISING A KRAS INHIBITOR FOR THE TREATMENT OF CANCER” (I-Mab Biopharma US Limited, priority 2022, published 2025).

Tests used:
[1] = system: NCI-H358 human NSCLC tumor cells (KRAS G12C); experiment: In vitro phagocytosis of NCI-H358 tumor cells by M0 macrophages (IncuCyte pHrodo); type: cell-based; settings: AMG 510 pre-treatment 0.1, 1 or 10 μm 24 hours, then M0 macrophage 1:1 and 1 μg/ml TJC4 3-6 hours, FIG. 4A-4C
Description: The following experiments were performed to assess the effects of anti-CD47 antibody TJC4 in combination with the KRAS G12C inhibitor AMG-510 on the in vitro phagocytosis of NCI-H358 human NSCLC tumor cells. As discussed in Example 1, NCI-H358 cells bear the KRAS G12C mutation. The in vitro phagocytosis assays were performed by co-culturing M0 macrophage cells with INCUCYTE® PHRODO®-labeled NCI-H358 tumor cells. Briefly, prior to co-culture, NCI-H358 cells were pre-treated with AMG 510 at the concentrations of 0 μm, 0.1 μm, 1 μm, or 10 μm for 24 hours. The NCI-H358 cells were further incubated with M0 macrophage (at a ratio of 1:1) and 1 μg/ml TJC4 for 3-6 hours. The NCI-H358 cells were then subject to INCUCYTE® ZOOM Live-Cell Imaging System analysis, and the percentage of phagocytosed NCI-H358 was calculated.
Synergy of the combination of AMG 510 and TJC4 in inducing phagocytosis was calculated as: […]
An F value≥1.00 indicates a synergistic effect between AMG-510 and TJC4.

[2] = system: human NCI-H358 non-small cell lung cancer (NSCLC) tumor xenografts (KRAS G12C); experiment: In vivo anti-tumor efficacy in mice bearing NCI-H358 NSCLC tumor xenografts; parameters: species or system CB17 SCID mice; settings: 1 mg/kg QD (AMG-510 p.o., TJC4 i.p.), tumor size over 15 days, FIG. 1
Description: The anti-tumor efficacy of anti-CD47 antibody TJC4 in combination with the KRAS G12C inhibitor AMG-510 was assessed in mice bearing human NCI-H358 non-small cell lung cancer (NSCLC) tumor xenografts. The NCI-H358 cell line, which was established from a chemotherapy-naïve NSCLC tumor, harbors a KRAS G12C mutation. TJC4 is an exemplary anti-CD47 antibody that comprises a VH that comprises SEQ ID NO: 1, a VL that comprises SEQ ID NO: 2, and a human IgG4 Fe region that comprises an S228P substitution (EU numbering). AMG-510 is also known as Sotorasib. KRAS G12C mutations, which are common in NSCLC, lead to constitutive activation of the tumor growth-promoting RAS/MAPK signaling pathway. […]
Each animal's tumor size was measured three times per week for 15 days. Tumor size was calculated as V=0.5L×W^2, where L and W indicate long and short diameters of the tumor, respectively. Anti-tumor efficacy of the drugs was also analyzed by TGI % (percentage of tumor growth inhibition). TGI % was calculated as: […]
where TRTV is treatment group RTV, and CRTV is control group RTV. RTV=VN/V1, where V1 is the mean tumor volume measured on Day 1 of administration, and VN is the mean tumor volume measured on Day N of administration.
The synergy of the combination of TJC4 and AMG-510 was calculated as: […]

[3] = system: LS180 human colon adenocarcinoma cells (KRAS G12D); experiment: In vitro phagocytosis of LS180 colon cancer cells by macrophages (flow cytometry); type: cell-based; settings: MRTX1133 100 nM, TJC4 0.5 μg/ml, 24 hours; co-culture 2 hours; combination compared to either agent alone, FIG. 5B
Description: LS180 human colon adenocarcinoma cells, which harbor the KRAS G12D mutation were incubated with (a) DMSO, (b) the KRAS G12D inhibitor MRTX1133 (100 nM), (c) anti-CD47 antibody TJC4 (0.5 μg/ml), or (d) MRTX1133 (100 nM)+TJC4 (0.5 μg/ml) for 24 hours and then labeled with 2.5 μM carboxyfluorescein succinimidyl ester (CFSE) for 10 minutes at 37° C. Macrophage cells, which were obtained by human THP-1 leukemia monocyte cells with lipopolysaccharide (LPS) for 24 hours, were cultured in a serum free medium for 2 hours and then added to 2×10^5 CFSE-labeled LS180 cells. The macrophages and the LS180 cells were co-cultured at 37° C. for 2 hours. Macrophages were then stained with an APC-labeled anti-F4/80 antibody, and CFSE+ F4/80+ cells were detected by flow cytometry (10,000 cells analyzed in each sample). The percentage of macrophage-phagocytosed LS180 cells was calculated by dividing the number of CFSE+ F4/80+ cells (see the top right quadrant, i.e., Q2, of each flow cytometry histogram in FIG. 5A) by the number CFSE+ cells (see the top left and right quadrants, i.e., Q1 and Q2, respectively) of each flow cytometry histogram in FIG. 5A). In other words, macrophage-phagocytosed LS180 cells (%)=[Q2/(Q1+Q2)]×100%.

[4] = system: human LS180 colon adenocarcinoma tumor xenografts; experiment: In vivo anti-tumor efficacy in mice bearing LS180 colon adenocarcinoma xenografts (bioluminescence imaging); parameters: species or system BALB/c nude mice; settings: MRTX1133 20 mg/kg, TJC4 1 mg/kg, intraperitoneally twice a week for four weeks, FIG. 7B
Description: The anti-tumor efficacy of anti-CD47 antibody TJC4 in combination with the KRAS G12D inhibitor MRTZ1133 was assessed in mice bearing human LS180 colon adenocarcinoma tumor xenografts. Briefly, 5×10^5 LS180 cells were injected into the cecal walls of BALB/c nude mice. Tumors formed and grew stably after 2 weeks. Mice were given one of the following treatments for four weeks: (a) PBS (control); (b) TJC4 (1 mg/kg, intraperitoneally twice a week); (c) MRTX1133 (20 mg/kg, intraperitoneally twice a week); or (d) MRTX1133 (20 mg/kg, intraperitoneally twice a week)+TJC4 (1 mg/kg, intraperitoneally twice a week). Tumor growth was evaluated by Bioluminescence imaging (BLI) every week.

[5] = system: LS180 human colon adenocarcinoma cells; experiment: Apoptosis of LS180 cells (FITC-Annexin V / PI flow cytometry); type: cell-based; settings: MRTX1133 100 nM, TJC4 0.5 μg/ml, 24 hours; combination compared to either agent alone, FIG. 6A/6B
Description: LS180 human colon adenocarcinoma cells were incubated with (a) DMSO, (b) the KRAS G12D inhibitor MRTX1133 (100 nM), (c) anti-CD47 antibody TJC4 (0.5 μg/ml), or (d) MRTX1133 (100 nM)+TJC4 (0.5 μg/ml) for 24 hours and then labeled with fluorescein isothiocyanate (FITC)-Annexin V and propidium iodide (PI). Annexin V (or Annexin A5) is a member of the annexin family of intracellular proteins that binds to phosphatidylserine (PS) in a calcium-dependent manner. PS is normally only found on the intracellular leaflet of the plasma membrane in healthy cells, but during early apoptosis, membrane asymmetry is lost, and PS translocates to the external leaflet. FITC-labeled Annexin V can then be used to specifically target and identify apoptotic cells. PI a cell impermeable nucleic acid intercalating dye. Following staining, the cells were analyzed via flow cytometry.

[6] = biological target: KRAS G12D mutant protein (Homo sapiens, UniProt P01116, G12D); settings: Wang et al. (2022) J Med Chem; cited from earlier work

| Molecule | TJC4-mediated phagocytosis of NCI-H358 by macrophages [1] | tumor growth inhibition as compared to mice treated with PBS control [2] | phagocytosis of LS180 cells by macrophages [3] | tumor growth (bioluminescence imaging) [4] | apoptosis of LS180 cells [5] | specificity to the KRAS G12D mutant protein relative to wild-type KRAS [6] |
| --- | --- | --- | --- | --- | --- | --- |
| C=CC(=O)N1CCN(c2nc(=O)n(-c3c(C)ccnc3C(C)C)c3nc(-c4c(O)cccc4F)c(F)cc23)[C@@H](C)C1 [AMG-510, 6-Fluoro-7-(2-fluoro-6-hydroxyphenyl)-(1M)-1-[4-methyl-2-(propan-2-yl)pyridin-3-yl]-4-[(2S)-2-methyl-4-(prop-2-enoyl)piperazin-1-yl]pyrido[2,3-d]pyrimidin-2(1H)-one] | enhanced | did not demonstrate tumor growth inhibition |  |  |  |  |
| C#Cc1c(F)ccc2cc(O)cc(-c3ncc4c(N5CC6CCC(C5)N6)nc(OC[C@@]56CCCN5C[C@H](F)C6)nc4c3F)c12 [MRTX1133] |  |  | increased | inhibited tumor growth | increased | more than 1000 times |
| TJC4: anti-CD47 antibody with VH SEQ ID NO: 1, VL SEQ ID NO: 2 and human IgG4 Fc region comprising S228P substitution (antibody, V domains shown, human IgG4 Fc with S228P, no entry) VH: EVQLVESGGGLVKPGGSLRLSCAASGLTFERAWMNWVRQAPGKGLEWVGRIKRKTDGETTDYAAPVKGRFSISRDDSKNTLYLQMNSLKTEDTAVYYCAGSNRAFDIWGQGTMVTVSS VL: DIVMTQSPDSLAVSLGERATINCKSSQSVLYAGNNRNYLAWYQQKPGQPPKLLINQASTRASGVPDRFSGSGSGTEFTLIISSLQAEDVAIYYCQQYYTPPLAFGGGTKLEIK |  | did not demonstrate tumor growth inhibition | increased | weak inhibitory effect | increased |  |
